From patent US20130131161A1, “METHODS AND COMPOSITIONS FOR CARDIOVASCULAR DISEASES AND CONDITIONS” (priority 2009, published 2013)

Test system: Human umbilical vein endothelial cells (HUVECs)
Assay: eNOS activity analysis: NO, ONOO− and NO/ONOO− release from HUVECs of 50 genotyped donors in response to LA-419 (Example 2)
Assay type: cell-based
Experimental: Concurrent measurements of NO and ONOO^− were carried out with tandem electrochemical nanosensors combined into one working unit with a total diameter of 200-500 nm (FIG. 1). Their design was based on previously developed and well-characterized chemically modified carbon-fiber technology (Malinski and Taha, 1992; Lvovich and Scheeline, 1997). Each of the nanosensors was made by depositing a sensing material on the tip of a carbon fiber (length 4-5 μm, diameter 0.2-0.5 μm). The fibers were sealed with nonconductive epoxy and electrically connected to copper wires with conductive silver epoxy. A conductive film of polymeric nickel (II) tetrakis(3-methoxy-4-hydroxyphenyl)porphyrin for the NO-sensor and polymeric film of Mn (III) [2.2]paracyclophanylporphyrin was used for the ONOO^−-sensor.
A module of NO/ONOO^− nanosensors (diameter 1-2 μm) with a platinum wire (0.1 mm) counter electrode and saturated calomel reference electrode (SCE) were applied. Differential pulse voltammetry (DPV) and amperometry were performed with a computer-based Gamry VFP600 multichannel potentiostat. DPV was used to measure the basal NO and ONOO^− concentrations, and amperometry was used to measure changes in NO and ONOO^− concentrations from its basal level with time. The DPV current at the peak potential characteristic for NO oxidation (0.65 V) and ONOO^− reduction (−0.45 V) was directly proportional to the local concentrations of these compounds in the immediate vicinity of the sensor. Linear calibration curves (current vs. concentration) were constructed for each sensor from 10 nM to 3 μM before and after measurements with aliquots of NO and ONOO^− standard solutions, respectively. The detection limit of the sensors was 1.0 nM.
The quantification of each analyte (concentration in nM) was performed using a maximum current from amperograms and standard calibration curves. A reproducibility of measurements with nanosensors is relatively high (between 5-12%). […] The sensors were slowly raised 5±2 μm from the surface of a single endothelial cell. The eNOS agonist, calcium ionophore A23187 (CaI) as well as the different drugs were then added to the surrounding media at the cell surface with a nanoinjector that was also positioned by a computer controlled-micromanipulator.
This example describes the genotype-specific response of the three major eNOS variants to 1 μM and 5 μM concentrations of LA-419. The three major genetic polymorphisms studied were the Glu298Asp variant (E298D or 894G→T) in exon 7 of […], the −786T→C variant in the promoter region, and the intron 4 polymorphism (VNTR). All of these variants have possible effects on the cardiovascular system and endothelial dysfunction. For this study, human umbilical vein endothelial cells (HUVECs) from 50 donors between 18 and 32 years of age were used.
For the analysis several analysis techniques were employed. First, the effect of genotype on NO and ONOO^− release was explored within the different concentrations of LA-419 (control, 1 μM, 5 μM), calculated as the average peak release (nmols/L) of NO, ONOO^−, and NO/ONOO^−. The effect of genotype on the net increase in NO, ONOO^−, and NO/ONOO^− for LA-419 (1 μM and 5 μM) as compared to control was also measured. In addition, an analysis was done on the effect of genotype on the % change in NO, ONOO^−, and NO/ONOO^− production for LA-419 (1 μM and 5 μM), calculated as:
% Change=[(avg. LA-419−avg. control)/(avg. control)]*100
Finally, an evaluation was undertaken concerning the effect of genotype on the production of NO, ONOO^−, and NO/ONOO^− as the fold difference of control for LA-419 (1 μM and 5 μM), calculated as:
Fold Difference=(avg. LA-419)/(avg. control)
Within each calculation technique the results were compared for statistical significance using a non-parametric ANOVA Kruskal-Wallace test or a non-parametric Mann-Whitney U test. Statistical significance was set at a p-value <0.05 in a two-tailed distribution. […]

[1] = (LA-419 5 μM)/(control), T-786C C/C, n=4
[2] = (LA-419 5 μM)/(control), T-786C T/C & C/C, n=27
[3] = (LA-419 5 μM)/(control), T-786C T/C, n=23
[4] = (LA-419 5 μM)/(control), T-786C T/T & T/C, n=45
[5] = (LA-419 5 μM)/(control), T-786C T/T, n=22
[6] = Caucasian, (LA-419 1 μM)/(control), Combination of all G894T + T-786C genotypes but G/G + T/T, n=19
[7] = Caucasian, (LA-419 1 μM)/(control), G894T + T-786C G/G + T/C, n=3
[8] = Caucasian, (LA-419 1 μM)/(control), G894T + T-786C G/G + T/T, n=7
[9] = Caucasian, (LA-419 1 μM)/(control), G894T + T-786C G/T + T/C, n=10
[10] = Caucasian, (LA-419 1 μM)/(control), G894T + T-786C G/T + T/T, n=3
[11] = Caucasian, (LA-419 1 μM)/(control), G894T + T-786C T/T + T/C, n=2
[12] = Caucasian, (LA-419 1 μM)/(control), G894T G/G, n=10
[13] = Caucasian, (LA-419 1 μM)/(control), G894T G/T & T/T, n=16
[14] = Caucasian, (LA-419 1 μM)/(control), G894T G/T, n=13
[15] = Caucasian, (LA-419 1 μM)/(control), G894T T/T, n=3
[16] = Caucasian, (LA-419 1 μM)/(control), Intron 4 b/a & a/a, n=6
[17] = Caucasian, (LA-419 1 μM)/(control), Intron 4 b/a, n=5
[18] = Caucasian, (LA-419 1 μM)/(control), Intron 4 b/b, n=18
[19] = Caucasian, (LA-419 1 μM)/(control), T-786C T/C & C/C, n=16
[20] = Caucasian, (LA-419 1 μM)/(control), T-786C T/C, n=15
[21] = Caucasian, (LA-419 1 μM)/(control), T-786C T/T, n=10
[22] = Caucasian, (LA-419 5 μM)/(control), Combination of all G894T + T-786C genotypes but G/G + T/T, n=19
[23] = Caucasian, (LA-419 5 μM)/(control), G894T + T-786C G/G + T/C, n=3
[24] = Caucasian, (LA-419 5 μM)/(control), G894T + T-786C G/G + T/T, n=7
[25] = Caucasian, (LA-419 5 μM)/(control), G894T + T-786C G/T + T/C, n=10
[26] = Caucasian, (LA-419 5 μM)/(control), G894T + T-786C G/T + T/T, n=3
[27] = Caucasian, (LA-419 5 μM)/(control), G894T + T-786C T/T + T/C, n=2

**Q.** What does the source list for `CC(=O)SC1COC2C(O[N+](=O)[O-])COC12` (stereo not drawn) [LA-419, S-(6-Nitro-oxi-hexahydro-furo[3,2-b]furan-3-1-il)thioacetate]?
**A.** Fold difference NO (mean ± sd) [1]: 1.12 (0.06); Fold difference NO/ONOO− (mean ± sd) [1]: 1.42 (0.13); Fold difference ONOO− (mean ± sd) [1]: 0.79 (0.08); Fold difference NO (mean ± sd) [2]: 1.13 (0.07); Fold difference NO/ONOO− (mean ± sd) [2]: 1.39 (0.13); Fold difference ONOO− (mean ± sd) [2]: 0.82 (0.06); Fold difference NO (mean ± sd) [3]: 1.14 (0.07); Fold difference NO/ONOO− (mean ± sd) [3]: 1.39 (0.14); Fold difference ONOO− (mean ± sd) [3]: 0.82 (0.06); Fold difference NO (mean ± sd) [4]: 1.15 (0.06); Fold difference NO/ONOO− (mean ± sd) [4]: 1.44 (0.16); Fold difference ONOO− (mean ± sd) [4]: 0.81 (0.07); Fold difference NO (mean ± sd) [5]: 1.16 (0.06); Fold difference NO/ONOO− (mean ± sd) [5]: 1.49 (0.18); Fold difference ONOO− (mean ± sd) [5]: 0.79 (0.08); Fold difference NO (mean ± sd) [6]: 1.20 (0.29); Fold difference NO/ONOO− (mean ± sd) [6]: 1.61 (0.77); Fold difference ONOO− (mean ± sd) [6]: 0.81 (0.16); Fold difference NO (mean ± sd) [7]: 1.13 (0.03); Fold difference NO/ONOO− (mean ± sd) [7]: 1.27 (0.04); Fold difference ONOO− (mean ± sd) [7]: 0.89 (0.02); Fold difference NO (mean ± sd) [8]: 1.25 (0.12); Fold difference NO/ONOO− (mean ± sd) [8]: 1.63 (0.72); Fold difference ONOO− (mean ± sd) [8]: 0.84 (0.22); Fold difference NO (mean ± sd) [9]: 1.29 (0.37); Fold difference NO/ONOO− (mean ± sd) [9]: 1.75 (0.91); Fold difference ONOO− (mean ± sd) [9]: 0.81 (0.16); Fold difference NO (mean ± sd) [10]: 1.08 (0.03); Fold difference NO/ONOO− (mean ± sd) [10]: 1.21 (0.04); Fold difference ONOO− (mean ± sd) [10]: 0.90 (0.06); Fold difference NO (mean ± sd) [11]: 1.11 (0.36); Fold difference NO/ONOO− (mean ± sd) [11]: 2.25 (1.17); Fold difference ONOO− (mean ± sd) [11]: 0.52 (0.11); Fold difference NO (mean ± sd) [12]: 1.21 (0.12); Fold difference NO/ONOO− (mean ± sd) [12]: 1.52 (0.61); Fold difference ONOO− (mean ± sd) [12]: 0.86 (0.18); Fold difference NO (mean ± sd) [13]: 1.21 (0.32); Fold difference NO/ONOO− (mean ± sd) [13]: 1.68 (0.83); Fold difference ONOO− (mean ± sd) [13]: 0.79 (0.17); Fold difference NO (mean ± sd) [14]: 1.24 (0.33); Fold difference NO/ONOO− (mean ± sd) [14]: 1.63 (0.82); Fold difference ONOO− (mean ± sd) [14]: 0.83 (0.15); Fold difference NO (mean ± sd) [15]: 1.08 (0.26); Fold difference NO/ONOO− (mean ± sd) [15]: 1.90 (1.02); Fold difference ONOO− (mean ± sd) [15]: 0.63 (0.19); Fold difference NO (mean ± sd) [16]: 1.25 (0.33); Fold difference NO/ONOO− (mean ± sd) [16]: 1.52 (0.70); Fold difference ONOO− (mean ± sd) [16]: 0.86 (0.10); Fold difference NO (mean ± sd) [17]: 1.28 (0.35); Fold difference NO/ONOO− (mean ± sd) [17]: 1.58 (0.77); Fold difference ONOO− (mean ± sd) [17]: 0.85 (0.12); Fold difference NO (mean ± sd) [18]: 1.21 (0.25); Fold difference NO/ONOO− (mean ± sd) [18]: 1.69 (0.80); Fold difference ONOO− (mean ± sd) [18]: 0.79 (0.20); Fold difference NO (mean ± sd) [19]: 1.22 (0.31); Fold difference NO/ONOO− (mean ± sd) [19]: 1.69 (0.82); Fold difference ONOO− (mean ± sd) [19]: 0.79 (0.17); Fold difference NO (mean ± sd) [20]: 1.24 (0.32); Fold difference NO/ONOO− (mean ± sd) [20]: 1.72 (0.84); Fold difference ONOO− (mean ± sd) [20]: 0.79 (0.17); Fold difference NO (mean ± sd) [21]: 1.20 (0.13); Fold difference NO/ONOO− (mean ± sd) [21]: 1.50 (0.62); Fold difference ONOO− (mean ± sd) [21]: 0.86 (0.18); Fold difference NO (mean ± sd) [22]: 1.13 (0.06); Fold difference NO/ONOO− (mean ± sd) [22]: 1.37 (0.10); Fold difference ONOO− (mean ± sd) [22]: 0.83 (0.06); Fold difference NO (mean ± sd) [23]: 1.19 (0.02); Fold difference NO/ONOO− (mean ± sd) [23]: 1.47 (0.08); Fold difference ONOO− (mean ± sd) [23]: 0.81 (0.03); Fold difference NO (mean ± sd) [24]: 1.19 (0.08); Fold difference NO/ONOO− (mean ± sd) [24]: 1.47 (0.14); Fold difference ONOO− (mean ± sd) [24]: 0.81 (0.04); Fold difference NO (mean ± sd) [25]: 1.11 (0.05); Fold difference NO/ONOO− (mean ± sd) [25]: 1.33 (0.06); Fold difference ONOO− (mean ± sd) [25]: 0.84 (0.04); Fold difference NO (mean ± sd) [26]: 1.14 (0.06); Fold difference NO/ONOO− (mean ± sd) [26]: 1.39 (0.14); Fold difference ONOO− (mean ± sd) [26]: 0.83 (0.11); Fold difference NO (mean ± sd) [27]: 1.12 (0.09); Fold difference NO/ONOO− (mean ± sd) [27]: 1.29 (0.01); Fold difference ONOO− (mean ± sd) [27]: 0.87 (0.06); Fold difference NO (mean ± sd) (Caucasian, (LA-419 5 μM)/(control), G894T G/G, n=10): 1.19 (0.07)
